This is an account of results in patent US20260152490A1, “METHYLLACTAM RING COMPOUND AND PHARMACEUTICAL USE THEREOF” (Japan Tobacco Inc., priority 2018, published 2026).

SMILES strings stand for the structures.

Data set [1] deals with Salmonella typhimurium (TA98, TA1537, TA100, and TA1535) and Escherichia coli (WP2uvrA). Description: Ames test (reverse mutation test), all tester strains: overall conclusion and precipitation. Type of data set: cell-based. On the set-up: key to Precipitation: * Growth inhibition; †: Precipitation. The text has this: (§1) Metabolite 1 and Metabolite C were each tested herein.
(§2) Two plates per treatment were used.

Data set [2] concerns Salmonella typhimurium TA98. Description: Ames test (reverse mutation test), TA98. The conditions noted are these: TA98 with S9 mix. Type of data set: cell-based.
Excerpt: as §1, §2

Data set [3] concerns Salmonella typhimurium TA100. Description: Ames test (reverse mutation test), TA100. The following applies: TA100 with S9 mix. It is filed as cell-based.
Excerpt: as §1, §2
For orientation: The Ames test uses bacterial strains that need an amino acid and regain growth without it when mutated back.

For data set [4], the system named is glucose-loaded SD rats. Description: OGTT (Oral Glucose Tolerance Test), Test Example 2. Type of data set: in vivo. The conditions noted are these: male SD rat, 1, 3, or 10 mg/kg orally, glucose load after 16 hours, to 120 minutes, compared to vehicle. The protocol: Vehicle (0.5% methylcellulose solution) or Compound 1 (1, 3, or 10 mg/kg) suspended in a 0.5% methylcellulose solution was orally administered in 5 mL/kg to an about 4-hour-fasted male SD rat (8-week old, Nihon Charles River K.K., 6 cases for each group).
Statistical analyses were based on Steel's multiple test. The significance level was two-sided 5%.

Data set [5] deals with glucose-loaded SD rats. Description: OGTT (Oral Glucose Tolerance Test), Test Example 3. Type of data set: in vivo. The conditions noted are these: male SD rat, 3 mg/kg orally, glucose load after 16 hours, to 120 minutes, compared to vehicle. The protocol:
Vehicle (0.5% methylcellulose solution) or Compound 1, Compound A, or Compound B (3 mg/kg each) suspended in a 0.5% methylcellulose solution was orally administered in 5 mL/kg to an about 4-hour-fasted male SD rat (8-week old, Nihon Charles River K.K., 5 cases for each group).
Statistical analyses were based on Dunnett's multiple group test. The significance level was two-sided 5%.

Data set [6] has as its system Salmonella typhimurium TA1535. Description: Ames test (reverse mutation test), TA1535. The following applies: TA1535, with S9 mix, 2.0 μg/plate, positive control. Type of data set: cell-based.
Excerpt: as §1, §2

The next data set relates to Escherichia coli WP2uvrA. Description: Ames test (reverse mutation test), WP2uvrA. The conditions noted are these: without S9 mix, 0.01 μg/plate, positive control. Type of data set: cell-based.
Excerpt: as §1, §2

In the case of `CC(C)(C)Oc1cc(F)cc(-c2cc(N)nn2C(F)(F)F)c1` [Metabolite 1], in data set [1] (any of the bacterial tester strains, presence or absence of S9 mix), the “potential to induce reverse mutations” value was “did not have potential to induce reverse mutations”. Also, the Precipitation entry in data set [1] (with S9 mix, 556 μg/plate, Table 1 (TA98, TA100)) is on record as “†”; in data set [1] (with S9 mix, 1667 μg/plate, Table 1 (TA98, TA100)), “†”; in data set [1] (with S9 mix, 5000 μg/plate, Table 1 (TA98, TA100)), “†”; in data set [1] (with S9 mix, 5000 μg/plate, Table 2 (TA1537, TA1535, WP2uvrA)) it was “†”; in data set [1] (without S9 mix, 5000 μg/plate, Table 4 (all five strains)), “†”.

`CC(C)(C)Oc1cccc(-c2cc(N)nn2-c2ccccc2)c1` [Metabolite C]: the “potential to induce reverse mutations” value in data set [2] and in data set [3] was “had potential to induce reverse mutations” throughout. Moreover, the Precipitation entry in data set [1] (with S9 mix, 556 μg/plate, Table 6 (TA1537, TA1535, WP2uvrA)) is “†”; in data set [1] (with S9 mix, 1667 μg/plate, Table 6 (TA1537, TA1535, WP2uvrA)) it was “†”; in data set [1] (with S9 mix, 5000 μg/plate, Table 6 (TA1537, TA1535, WP2uvrA)) it was “†”; in data set [1] (without S9 mix, 556 μg/plate, Table 7 (all five strains)), “†”; in data set [1] (without S9 mix, 1667 μg/plate, Table 7 (all five strains)) it was “†”; in data set [1] (without S9 mix, 5000 μg/plate, Table 7 (all five strains)), “†”.

Turning to `C[C@H]1C(=O)NC[C@@H]1C(=O)Nc1cc(-c2cc(F)cc(OC(C)(C)C)c2)n(C(F)(F)F)n1` [Compound 1, (3R,4R)—N-(5-(3-(tert-butoxy)-5-fluorophenyl)-1-(trifluoromethyl)-1H-pyrazol-3-yl)-4-methyl-5-oxopyrrolidine-3-carboxamide], the “blood glucose level after the glucose load (Δ AUC, % of Vehicle)” value in the data set on glucose-loaded SD rats [4] is recorded as “significantly reduced the blood glucose level”. For the same compound, the “blood glucose level after the glucose load (A AUC, % of Vehicle)” value in the data set with glucose-loaded SD rats [5] was “significantly reduced the blood glucose level”.

`Nc1ccc2cc3ccccc3cc2c1` [Compound 2AA, 2-Aminoanthracene]: the “Number of revertant colonies” value came to 223 in data set [6] (Table 2) and 250 in data set [6] (Table 6).

For `NC(=O)C(=Cc1ccc([N+](=O)[O-])o1)c1ccco1` [AF-2, 2-(2-Furyl)-3-(5-nitro-2-furyl)acrylamide], the “Number of revertant colonies” value with Escherichia coli WP2uvrA (Table 4) was determined as 69; with Escherichia coli WP2uvrA (Table 7), 74.
